Assay results from US11767322B2 (BRISTOL-MYERS SQUIBB COMPANY, priority 2020, dated 2023).
Like-named read-outs stand apart in the source and are kept apart here.

Tests used:
[1] = target: T1, His-GST-TVMV-hRIPK1(1-324) (Homo sapiens, UniProt Q13546); experiment: biochemical; format: binding; details: HTRF probe displacement, 1 h at rt; read-out: RIPK1 IC50
T1 construct: The coding region of human RIPK1(1-324) flanked by NdeI site at 5′ end; made in house; host or cells: Spodoptera frugiperda Sf9 insect cells (baculovirus, Bac-to-Bac)
T1 sequence (Q13546 1-324): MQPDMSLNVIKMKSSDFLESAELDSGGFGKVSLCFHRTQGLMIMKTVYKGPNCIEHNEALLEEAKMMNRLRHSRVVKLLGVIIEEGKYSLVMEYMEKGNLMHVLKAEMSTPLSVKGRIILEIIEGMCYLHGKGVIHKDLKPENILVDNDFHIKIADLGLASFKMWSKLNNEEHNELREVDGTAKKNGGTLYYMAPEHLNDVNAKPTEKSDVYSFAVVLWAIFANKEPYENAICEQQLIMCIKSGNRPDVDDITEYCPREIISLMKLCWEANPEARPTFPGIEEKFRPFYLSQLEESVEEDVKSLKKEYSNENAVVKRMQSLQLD

[2] = test system: MLKL phosphorylation in HT29-L23 human colorectal adenocarcinoma cells; experiment: MLKL phosphorylation high-content assay; format: cell-based; details: necroptosis induced with TNFα, SMAC mimetic and Z-VAD, 6 h, maximal inhibition defined by Nec1s
[3] = read-out: pMLKL IC50, HT29-L23 cells
[4] = Homo sapiens, read-out: pMLKL IC50, HT29-L23 cells

Row | Compound | IC50 [1] [nM] | IC50 [2, 3] [nM] | IC50 [2, 4] [nM] | IC50 ([2]; HT29-L23 cells, read-out: pMLKL IC50) [nM]
1 | Nc1nc2cc(-c3ccc(Cl)c(C(=O)NCC(F)(F)C(O)c4cccc(F)c4F)c3F)ccn2n1 (single isomer, unassigned) [Example 167, 3-(2-amino-[1,2,4]triazolo[1,5-a]pyridin-7-yl)-6-chloro-N-(3-(2,3-difluorophenyl)-2,2-difluoro-3-hydroxypropyl)-2-fluorobenzamide] | 15 | 7.8 | – | –
2 | Cc1ccc(-c2ccn3nc(N)nc3c2)c(F)c1C(=O)NCCC(O)c1ccc(C(F)(F)F)cc1 (stereo not shown) [Example 55, 3-(2-amino-[1,2,4]triazolo[1,5-a]pyridin-7-yl)-2-fluoro-N-(3-hydroxy-3-(4-(trifluoromethyl)phenyl)propyl)-6-methylbenzamide] | 0.3 | – | 0.9 | –
3 | Cc1cc(F)c(-c2ccn3nc(N)nc3c2)cc1C(=O)NCC(F)(F)C(C)(O)c1ccc(Cl)cc1 (single isomer, unassigned) [Example 225, 5-(2-amino-[1,2,4]triazolo[1,5-a]pyridin-7-yl)-N-(3-(4-chlorophenyl)-2,2-difluoro-3-hydroxybutyl)-4-fluoro-2-methylbenzamide] | 19 | – | 3.8 | –
4 | [2H]C([2H])([2H])OC(c1ccc(F)cc1)C(F)(F)CNC(=O)c1c(C)ccc(-c2ccn3nc(N)nc3c2)c1F (single isomer, unassigned) [Example 235, 3-(2-amino-[1,2,4]triazolo[1,5-a]pyridin-7-yl)-N-(2,2-difluoro-3-(4-fluorophenyl)-3-(methoxy-d3)propyl)-2-fluoro-6-methylbenzamide] | 4.3 | – | 0.6 | –
5 | Nc1nc2cc(-c3ccc(Cl)c(C(=O)NCC(F)C(O)c4ccc(Cl)cc4)c3F)ccn2n1 (stereo not shown) [Example 128, 3-(2-amino-[1,2,4]triazolo[1,5-a]pyridin-7-yl)-6-chloro-N-(3-(4-chlorophenyl)-2-fluoro-3-hydroxypropyl)-2-fluorobenzamide] | 5 | – | 1.2 | –
6 | Nc1nc2cc(-c3ccc(Cl)c(C(=O)NCCC(O)c4ccc(C(F)(F)F)cc4)c3F)ccn2n1 (single isomer, unassigned) [Example 85, 3-(2-amino-[1,2,4]triazolo[1,5-a]pyridin-7-yl)-6-chloro-2-fluoro-N-(3-hydroxy-3-(4-(trifluoromethyl)phenyl)propyl)benzamide] | 2.1 | 0.5 | – | –
7 | Nc1nc2cc(-c3ccc(Cl)c(C(=O)NCC(F)(F)C(O)c4ccc(F)cc4F)c3F)ccn2n1 (single isomer, unassigned) [Example 178, 3-(2-amino-[1,2,4]triazolo[1,5-a]pyridin-7-yl)-6-chloro-N-(3-(2,4-difluorophenyl)-2,2-difluoro-3-hydroxypropyl)-2-fluorobenzamide] | 0.9 | 22 | – | –
8 | Nc1nc2cc(-c3ccc(Cl)c(C(=O)NCCC(O)c4ccc(F)cc4)c3F)ccn2n1 (single isomer, unassigned) [Example 79, 3-(2-amino-[1,2,4]triazolo[1,5-a]pyridin-7-yl)-6-chloro-2-fluoro-N-(3-(4-fluorophenyl)-3-hydroxypropyl)benzamide] | 4.8 | – | 19 | –
9 | Cc1ccc(-c2ccn3nc(N)nc3c2C)c(F)c1C(=O)NCC[C@H](O)c1ccc(Cl)cc1 (single isomer, unassigned; enantiomer 1) [Example 137] | 9.7 | – | – | 0.9
10 | Cc1ccc(-c2ccn3nc(N)nc3c2)c(F)c1C(=O)NCC(F)(F)C(C)(O)c1ccc(C(F)(F)F)cc1 (stereo not shown) [Example 227, 3-(2-amino-[1,2,4]triazolo[1,5-a]pyridin-7-yl)-N-(2,2-difluoro-3-hydroxy-3-(4-(trifluoromethyl)phenyl)butyl)-2-fluoro-6-methylbenzamide] | 15 | – | 0.7 | –
11 | [2H]C([2H])([2H])c1ccc(-c2ccn3nc(N)nc3c2)c(F)c1C(=O)NCC(F)(F)C(O)(c1ccc(F)cc1)C([2H])([2H])[2H] (single isomer, unassigned) [Example 244, 3-(2-amino-[1,2,4]triazolo[1,5-a]pyridin-7-yl)-N-(2,2-difluoro-3-(4-fluorophenyl)-3-hydroxybutyl-4,4,4-d3)-2-fluoro-6-(methyl-d3)benzamide] | 2.7 | 1.2 | – | –
12 | [2H]C([2H])([2H])c1ccc(-c2ccn3nc(N)nc3c2)c(F)c1C(=O)NCC1(C(O)c2ccc(F)cc2)CC1 (single isomer, unassigned) [Example 308, 3-(2-amino-[1,2,4]triazolo[1,5-a]pyridin-7-yl)-2-fluoro-N-((1-((4-fluorophenyl) (hydroxy)methyl)cyclopropyl)methyl)-6-(methyl-d3)benzamide] | 12 | 9 | – | –
13 | [2H]C([2H])(CC([2H])(O)c1ccc(Cl)cc1)NC(=O)c1c(Cl)ccc(-c2ccn3nc(N)nc3c2)c1F (single isomer, unassigned) [Example 77, 3-(2-amino-[1,2,4]triazolo[1,5-a]pyridin-7-yl)-6-chloro-N-(3-(4-chlorophenyl)-3-hydroxypropyl-1,1,3-d3)-2-fluorobenzamide] | 2.9 | 7.7 | – | –
14 | Nc1nc2cc(-c3ccc(Cl)c(C(=O)NCC(F)(F)C(O)c4cccc(C(F)(F)F)n4)c3F)ccn2n1 (single isomer, unassigned) [Example 254, 3-(2-amino-[1,2,4]triazolo[1,5-a]pyridin-7-yl)-6-chloro-N-(2,2-difluoro-3-hydroxy-3-(6-(trifluoromethyl)pyridin-2-yl)propyl)-2-fluorobenzamide] | 3.5 | 4.1 | – | –
15 | Cc1ccc(-c2ccn3nc(N)nc3c2)c(F)c1C(=O)NCCC(O)c1cccc(F)c1 (single isomer, unassigned) [Example 64, 3-(2-amino-[1,2,4]triazolo[1,5-a]pyridin-7-yl)-2-fluoro-N-(3-(3-fluorophenyl)-3-hydroxypropyl)-6-methylbenzamide] | 12 | 8 | – | –
16 | Nc1nc2cc(-c3ccc(Cl)c(C(=O)NCC(F)(F)C(O)c4ccc(C(F)(F)F)cc4F)c3F)ccn2n1 (stereo not shown) [Example 165, 3-(2-amino-[1,2,4]triazolo[1,5-a]pyridin-7-yl)-6-chloro-N-(2,2-difluoro-3-(2-fluoro-4-(trifluoromethyl)phenyl)-3-hydroxypropyl)-2-fluorobenzamide] | 1.6 | 2.8 | – | –
17 | Cc1ccc(-c2ccn3nc(N)nc3c2)c(F)c1C(=O)NCC(F)(F)C(OP(=O)(O)O)c1ccc(F)cc1 (racemic) [Example 161, 3-(3-(2-amino-[1,2,4]triazolo[1,5-a]pyridin-7-yl)-2-fluoro-6-methylbenzamido)-2,2-difluoro-1-(4-fluorophenyl)propyl dihydrogen phosphate, racemate] | > 15000 | – | 135 | –
18 | Cc1ccc(-c2ccn3nc(N)nc3c2)c(F)c1C(=O)NCCC(C)(O)c1ccc(Cl)cc1 (racemic) [Example 17, 3-(2-amino-[1,2,4]triazolo[1,5-a]pyridin-7-yl)-N-(3-(4-chlorophenyl)-3-hydroxybutyl)-2-fluoro-6-methylbenzamide] | 1.9 | – | 2.5 | –
19 | [2H]C([2H])([2H])c1ccc(-c2ccn3nc(N)nc3c2)c(F)c1C(=O)NCC1(C([2H])(O)c2ccc(F)cc2)CC1 (single isomer, unassigned) [Example 310, 3-(2-amino-[1,2,4]triazolo[1,5-a]pyridin-7-yl)-2-fluoro-N-((1-((4-fluorophenyl) (hydroxy)methyl-d)cyclopropyl)methyl)-6-(methyl-d3)benzamide] | 5.7 | 20 | – | –
20 | Nc1nc2cc(-c3ccc(Cl)c(C(=O)NCC(F)(F)C(O)c4ccc(C(F)(F)F)cc4F)c3F)ccn2n1 (stereo not shown) [Example 164, 3-(2-amino-[1,2,4]triazolo[1,5-a]pyridin-7-yl)-6-chloro-N-(2,2-difluoro-3-(2-fluoro-4-(trifluoromethyl)phenyl)-3-hydroxypropyl)-2-fluorobenzamide] | 2.8 | – | 2.9 | –
21 | Cc1ccc(-c2ccn3nc(N)nc3c2)c(F)c1C(=O)NCC(F)(F)[C@@H](OC(N)=O)c1ccc(F)cc1 [Example 276, (S)-3-(3-(2-amino-[1,2,4]triazolo[1,5-a]pyridin-7-yl)-2-fluoro-6-methylbenzamido)-2,2-difluoro-1-(4-fluorophenyl)propyl carbamate] | 3.7 | – | 8.4 | –
22 | Cc1ccc(-c2ccn3nc(N)nc3c2)c(F)c1C(=O)NCC(C)(F)C(O)c1ccc(F)cc1 (single isomer, unassigned) [Example 205, 3-(2-amino-[1,2,4]triazolo[1,5-a]pyridin-7-yl)-2-fluoro-N-(2-fluoro-3-(4-fluorophenyl)-3-hydroxy-2-methylpropyl)-6-methylbenzamide] | 6.2 | 5.1 | – | –
23 | [2H]C([2H])([2H])OC(c1ccc(F)cc1)C(F)(F)CNC(=O)c1c(C)ccc(-c2ccn3nc(N)nc3c2)c1F (single isomer, unassigned) [Example 236, 3-(2-amino-[1,2,4]triazolo[1,5-a]pyridin-7-yl)-N-(2,2-difluoro-3-(4-fluorophenyl)-3-(methoxy-d3)propyl)-2-fluoro-6-methylbenzamide] | 3.4 | 0.9 | – | –
